Data from ChEMBL document CHEMBL4507270 (2021).
Calls of active or inactive are those of the source. No cut-off for these calls is given here.

Assays:
[1] = target: Serine/threonine-protein kinase 36 (Homo sapiens) (UniProt Q9NRP7)
[2] = target: Cyclin-dependent kinase 3 (Homo sapiens) (UniProt Q00526)
[3] = target: MAP/microtubule affinity-regulating kinase 4 (Homo sapiens) (UniProt Q96L34)
[4] = tested on: Receptor-type tyrosine-protein kinase FLT3 (Homo sapiens), P36888 [D835Y]
[5] = target: 5'-AMP-activated protein kinase catalytic subunit alpha-2 (Homo sapiens) (UniProt P54646)
[6] = target: Mitogen-activated protein kinase 3 (Homo sapiens) (UniProt P27361)
[7] = target: Serine/threonine-protein kinase PLK2 (Homo sapiens) (UniProt Q9NYY3)
[8] = target: Serine/threonine-protein kinase DCLK1 (Homo sapiens) (UniProt O15075)
[9] = target: Peripheral plasma membrane protein CASK (Homo sapiens) (UniProt O14936)
[10] = target: Serine/threonine-protein kinase 26 (Homo sapiens) (UniProt Q9P289)
[11] = target: BDNF/NT-3 growth factors receptor (Homo sapiens) (UniProt Q16620)
[12] = target: Serine/threonine-protein kinase PAK 2 (Homo sapiens) (UniProt Q13177)
[13] = target: Serine/threonine-protein kinase NLK (Homo sapiens) (UniProt Q9UBE8)
[14] = target: Serine/threonine-protein kinase PLK1 (Homo sapiens) (UniProt P53350)
[15] = target: Kappa-type opioid receptor (Homo sapiens, UniProt P41145); conditions: Compound concentration 10.0 uM
[16] = target: Serine/threonine-protein kinase MARK2 (Homo sapiens) (UniProt Q7KZI7)
[17] = target: Tyrosine-protein kinase Lck (Homo sapiens) (UniProt P06239)
[18] = target: Serine/threonine-protein kinase Nek1 (Homo sapiens) (UniProt Q96PY6)
[19] = target: Dual specificity mitogen-activated protein kinase kinase 5 (Homo sapiens) (UniProt Q13163)
[20] = target: Tyrosine-protein kinase ABL1 (Homo sapiens) (UniProt P00519)
[21] = target: Ephrin type-B receptor 6 (Homo sapiens) (UniProt O15197)
[22] = target: Phosphorylase b kinase regulatory subunit alpha, liver isoform (Homo sapiens) (UniProt P46019)
[23] = target: Angiopoietin-1 receptor (Homo sapiens, UniProt Q02763); test: NanoBRET assay (SGC Frankfurt) with TEK
[24] = target: Calcium/calmodulin-dependent protein kinase type 1B (Homo sapiens) (UniProt Q6P2M8)
[25] = target: Tyrosine-protein kinase receptor TYRO3 (Homo sapiens) (UniProt Q06418)
[26] = target: Cyclin-dependent kinase 18 (Homo sapiens) (UniProt Q07002)
[27] = target: Receptor-type tyrosine-protein kinase FLT3 (Homo sapiens) (UniProt P36888)
[28] = target: Glycogen synthase kinase-3 alpha (Homo sapiens) (UniProt P49840)
[29] = target: Dual specificity protein kinase CLK1 (Homo sapiens) (UniProt P49759)
[30] = target: Cyclin-dependent kinase 11B (Homo sapiens) (UniProt P21127)
[31] = target: Focal adhesion kinase 1 (Homo sapiens) (UniProt Q05397)
[32] = target: Cyclin-dependent kinase 17 (Homo sapiens) (UniProt Q00537)
[33] = target: Serine/threonine-protein kinase BRSK2 (Homo sapiens) (UniProt Q8IWQ3)
[34] = target: Protein-tyrosine kinase 2-beta (Homo sapiens) (UniProt Q14289)
[35] = target: Serine/threonine-protein kinase Nek7 (Homo sapiens) (UniProt Q8TDX7)
[36] = target: Ribosomal protein S6 kinase alpha-6 (Homo sapiens) (UniProt Q9UK32)
[37] = target: Beta-2 adrenergic receptor (Homo sapiens) (UniProt P07550); conditions: Compound concentration 10.0 uM
[38] = target: Platelet-derived growth factor receptor alpha (Homo sapiens) (UniProt P16234)
[39] = target: 5-hydroxytryptamine receptor 3A (Homo sapiens) (UniProt P46098); conditions: Compound concentration 10.0 uM
[40] = target: Muscarinic acetylcholine receptor M3 (Homo sapiens) (UniProt P20309); conditions: Compound concentration 10.0 uM
[41] = target: Proto-oncogene tyrosine-protein kinase Src (Homo sapiens) (UniProt P12931)
[42] = target: Mitogen-activated protein kinase 9 (Homo sapiens) (UniProt P45984)
[43] = target: Epidermal growth factor receptor (Homo sapiens) (UniProt P00533)
[44] = target: Tyrosine-protein kinase BTK (Homo sapiens) (UniProt Q06187)
[45] = tested on: eIF-2-alpha kinase GCN2 (Homo sapiens), Q9P2K8 [S808G]
[46] = Compound concentration 100.0 nM
[47] = Compound concentration 1000.0 nM

Sequence of Angiopoietin-1 receptor (Q02763 whole entry): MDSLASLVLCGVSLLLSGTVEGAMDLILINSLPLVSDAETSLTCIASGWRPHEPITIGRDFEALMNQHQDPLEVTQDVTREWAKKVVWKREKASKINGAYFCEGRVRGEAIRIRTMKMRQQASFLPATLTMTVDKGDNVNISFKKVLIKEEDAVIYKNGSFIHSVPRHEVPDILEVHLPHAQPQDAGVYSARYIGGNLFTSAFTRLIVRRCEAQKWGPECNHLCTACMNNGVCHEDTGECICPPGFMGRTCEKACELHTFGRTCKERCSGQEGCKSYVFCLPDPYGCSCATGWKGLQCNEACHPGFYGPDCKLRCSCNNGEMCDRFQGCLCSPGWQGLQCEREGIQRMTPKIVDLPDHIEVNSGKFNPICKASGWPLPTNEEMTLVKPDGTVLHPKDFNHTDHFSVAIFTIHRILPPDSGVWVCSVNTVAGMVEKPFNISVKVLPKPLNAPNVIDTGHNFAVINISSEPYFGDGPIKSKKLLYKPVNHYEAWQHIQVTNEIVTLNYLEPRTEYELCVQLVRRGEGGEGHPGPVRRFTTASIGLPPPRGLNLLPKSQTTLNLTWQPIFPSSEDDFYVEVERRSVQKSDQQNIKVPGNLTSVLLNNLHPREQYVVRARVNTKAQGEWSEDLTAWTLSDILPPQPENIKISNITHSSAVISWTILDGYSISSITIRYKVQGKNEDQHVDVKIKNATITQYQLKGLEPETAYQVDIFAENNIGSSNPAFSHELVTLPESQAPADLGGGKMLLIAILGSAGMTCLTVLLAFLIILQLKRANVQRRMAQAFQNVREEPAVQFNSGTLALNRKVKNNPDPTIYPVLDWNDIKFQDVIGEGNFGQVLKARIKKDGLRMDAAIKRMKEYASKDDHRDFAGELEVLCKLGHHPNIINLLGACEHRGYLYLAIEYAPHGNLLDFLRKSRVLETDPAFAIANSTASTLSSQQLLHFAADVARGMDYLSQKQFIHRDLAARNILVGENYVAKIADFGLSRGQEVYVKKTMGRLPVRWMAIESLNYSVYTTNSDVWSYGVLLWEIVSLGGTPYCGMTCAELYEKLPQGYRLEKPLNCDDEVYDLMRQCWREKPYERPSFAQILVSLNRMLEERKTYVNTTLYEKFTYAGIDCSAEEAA
Sequence of Calcium/calmodulin-dependent protein kinase type 1B (Homo sapiens) (Q6P2M8 whole entry): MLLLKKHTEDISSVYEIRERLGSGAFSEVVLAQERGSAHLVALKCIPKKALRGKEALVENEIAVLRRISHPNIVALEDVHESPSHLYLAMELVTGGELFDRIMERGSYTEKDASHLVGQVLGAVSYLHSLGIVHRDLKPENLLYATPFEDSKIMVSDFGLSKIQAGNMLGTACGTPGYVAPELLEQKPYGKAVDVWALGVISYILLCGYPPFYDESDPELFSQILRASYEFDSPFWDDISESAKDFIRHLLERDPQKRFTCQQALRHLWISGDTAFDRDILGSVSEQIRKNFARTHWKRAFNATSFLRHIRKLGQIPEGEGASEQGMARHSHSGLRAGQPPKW
Sequence of Serine/threonine-protein kinase PAK 2 (Homo sapiens) (Q13177 whole entry): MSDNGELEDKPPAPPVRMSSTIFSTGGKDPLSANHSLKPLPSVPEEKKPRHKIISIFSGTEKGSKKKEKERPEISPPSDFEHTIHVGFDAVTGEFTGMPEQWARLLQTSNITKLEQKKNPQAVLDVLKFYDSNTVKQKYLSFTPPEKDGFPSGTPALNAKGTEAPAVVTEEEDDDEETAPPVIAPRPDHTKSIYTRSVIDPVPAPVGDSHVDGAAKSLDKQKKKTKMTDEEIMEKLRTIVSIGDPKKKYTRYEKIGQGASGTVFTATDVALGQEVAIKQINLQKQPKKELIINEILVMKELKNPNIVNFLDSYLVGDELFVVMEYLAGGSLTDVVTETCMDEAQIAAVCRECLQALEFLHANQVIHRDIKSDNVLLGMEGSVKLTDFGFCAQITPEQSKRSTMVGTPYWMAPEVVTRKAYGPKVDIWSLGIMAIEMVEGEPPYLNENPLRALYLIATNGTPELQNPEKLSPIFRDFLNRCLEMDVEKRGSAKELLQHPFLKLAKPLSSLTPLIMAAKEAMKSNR
Sequence of eIF-2-alpha kinase GCN2 (Homo sapiens), Q9P2K8 [S808G] (Q9P2K8 whole entry S808G): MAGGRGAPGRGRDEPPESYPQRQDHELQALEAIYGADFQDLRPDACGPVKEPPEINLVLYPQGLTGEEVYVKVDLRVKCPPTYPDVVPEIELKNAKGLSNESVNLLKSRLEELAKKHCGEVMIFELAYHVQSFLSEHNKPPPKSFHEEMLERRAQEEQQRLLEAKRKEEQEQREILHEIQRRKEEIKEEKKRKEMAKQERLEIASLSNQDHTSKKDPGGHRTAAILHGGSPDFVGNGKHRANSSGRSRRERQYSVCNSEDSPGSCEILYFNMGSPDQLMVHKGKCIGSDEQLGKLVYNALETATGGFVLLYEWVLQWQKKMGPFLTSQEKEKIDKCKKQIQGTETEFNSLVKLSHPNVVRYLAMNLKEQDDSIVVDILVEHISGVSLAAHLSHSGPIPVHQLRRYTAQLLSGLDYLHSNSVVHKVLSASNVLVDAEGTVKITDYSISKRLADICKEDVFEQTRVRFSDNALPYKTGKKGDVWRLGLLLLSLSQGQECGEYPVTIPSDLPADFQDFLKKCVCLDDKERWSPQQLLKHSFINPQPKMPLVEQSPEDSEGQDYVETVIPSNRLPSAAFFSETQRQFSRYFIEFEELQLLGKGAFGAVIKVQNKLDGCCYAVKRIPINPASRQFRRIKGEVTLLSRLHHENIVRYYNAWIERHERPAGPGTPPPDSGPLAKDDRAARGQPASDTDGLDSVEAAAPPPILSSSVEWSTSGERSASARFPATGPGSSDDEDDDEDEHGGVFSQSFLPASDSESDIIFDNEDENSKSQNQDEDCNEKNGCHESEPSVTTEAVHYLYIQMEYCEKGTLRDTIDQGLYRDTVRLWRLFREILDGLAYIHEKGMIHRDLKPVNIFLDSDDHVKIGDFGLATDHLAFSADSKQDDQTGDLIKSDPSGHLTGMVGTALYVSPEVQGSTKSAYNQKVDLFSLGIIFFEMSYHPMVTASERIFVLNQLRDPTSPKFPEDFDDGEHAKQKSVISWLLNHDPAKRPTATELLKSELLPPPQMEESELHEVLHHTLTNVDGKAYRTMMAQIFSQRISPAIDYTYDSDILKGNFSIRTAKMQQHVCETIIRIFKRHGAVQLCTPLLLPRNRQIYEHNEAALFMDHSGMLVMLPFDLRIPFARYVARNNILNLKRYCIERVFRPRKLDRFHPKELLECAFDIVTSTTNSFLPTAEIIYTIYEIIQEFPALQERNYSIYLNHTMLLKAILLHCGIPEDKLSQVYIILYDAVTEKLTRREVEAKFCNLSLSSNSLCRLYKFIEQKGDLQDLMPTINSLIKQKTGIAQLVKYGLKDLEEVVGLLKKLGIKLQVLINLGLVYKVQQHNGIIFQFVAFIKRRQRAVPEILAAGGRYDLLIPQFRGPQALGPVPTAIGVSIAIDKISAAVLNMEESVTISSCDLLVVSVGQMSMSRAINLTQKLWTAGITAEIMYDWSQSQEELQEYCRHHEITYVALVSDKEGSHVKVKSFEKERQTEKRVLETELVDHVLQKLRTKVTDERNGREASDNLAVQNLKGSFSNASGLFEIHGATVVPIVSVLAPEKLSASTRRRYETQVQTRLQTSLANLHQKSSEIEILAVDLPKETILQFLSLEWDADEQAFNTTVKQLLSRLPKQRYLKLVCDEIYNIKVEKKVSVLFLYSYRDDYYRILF
Sequence of Proto-oncogene tyrosine-protein kinase Src (Homo sapiens) (P12931 2-536 limits assumed): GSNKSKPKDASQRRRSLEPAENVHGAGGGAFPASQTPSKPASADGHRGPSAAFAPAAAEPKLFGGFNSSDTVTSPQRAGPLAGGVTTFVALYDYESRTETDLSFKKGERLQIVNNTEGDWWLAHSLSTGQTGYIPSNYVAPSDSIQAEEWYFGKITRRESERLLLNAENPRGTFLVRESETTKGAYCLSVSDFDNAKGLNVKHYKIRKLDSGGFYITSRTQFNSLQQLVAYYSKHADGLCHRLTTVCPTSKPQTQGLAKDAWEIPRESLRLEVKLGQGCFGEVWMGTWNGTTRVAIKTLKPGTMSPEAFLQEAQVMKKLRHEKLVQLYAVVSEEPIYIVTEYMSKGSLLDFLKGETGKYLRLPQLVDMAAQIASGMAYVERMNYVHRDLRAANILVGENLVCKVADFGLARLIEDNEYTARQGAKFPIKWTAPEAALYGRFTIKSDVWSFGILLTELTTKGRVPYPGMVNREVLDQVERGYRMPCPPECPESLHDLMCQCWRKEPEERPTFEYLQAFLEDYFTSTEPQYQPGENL
Sequence of Dual specificity protein kinase CLK1 (Homo sapiens) (P49759 whole entry, looked up): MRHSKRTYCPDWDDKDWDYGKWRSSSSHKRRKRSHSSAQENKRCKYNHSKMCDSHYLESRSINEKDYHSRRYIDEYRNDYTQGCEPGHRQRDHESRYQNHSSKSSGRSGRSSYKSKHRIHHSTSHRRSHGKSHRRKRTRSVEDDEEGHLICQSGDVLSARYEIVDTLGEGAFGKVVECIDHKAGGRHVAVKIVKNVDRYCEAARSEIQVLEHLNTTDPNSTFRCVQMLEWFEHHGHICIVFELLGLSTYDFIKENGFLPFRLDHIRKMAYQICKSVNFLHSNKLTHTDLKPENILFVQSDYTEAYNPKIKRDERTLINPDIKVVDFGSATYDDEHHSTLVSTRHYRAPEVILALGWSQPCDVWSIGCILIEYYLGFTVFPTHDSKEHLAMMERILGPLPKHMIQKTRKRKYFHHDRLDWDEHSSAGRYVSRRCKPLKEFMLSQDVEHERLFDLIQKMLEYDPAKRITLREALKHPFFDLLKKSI
Sequence of Serine/threonine-protein kinase 26 (Homo sapiens) (Q9P289 2-416 limits assumed): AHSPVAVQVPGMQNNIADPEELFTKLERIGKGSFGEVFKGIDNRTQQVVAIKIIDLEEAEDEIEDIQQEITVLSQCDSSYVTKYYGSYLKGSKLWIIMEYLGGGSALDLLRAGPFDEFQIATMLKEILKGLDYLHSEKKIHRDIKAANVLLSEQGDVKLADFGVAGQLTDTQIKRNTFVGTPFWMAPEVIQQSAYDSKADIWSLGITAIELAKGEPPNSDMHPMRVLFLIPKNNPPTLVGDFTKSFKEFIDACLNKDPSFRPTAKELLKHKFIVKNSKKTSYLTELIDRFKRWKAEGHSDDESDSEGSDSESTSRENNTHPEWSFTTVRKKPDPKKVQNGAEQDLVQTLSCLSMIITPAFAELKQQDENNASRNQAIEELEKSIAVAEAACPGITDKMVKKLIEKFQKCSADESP

In the case of `Cc1cc(C)c(-n2ccn3nc(-c4cccnc4)cc23)cc1NC(=O)c1cc(C#N)cc(S(F)(F)(F)(F)F)c1` [BAY-826], the residual activity [1, 46] is reported as 80.8%, the residual activity [2, 46] is reported as 92.4% and the residual activity [3, 46] is reported as 92.4%. The residual activity [4, 46] was 91.4%, the residual activity [5, 46] was 82.7% and the residual activity [6, 46] was 95.2%. It also gave a residual activity [7, 46] of 83.3%, a residual activity [8, 46] of 73.6% and a residual activity [9, 46] of 86.6%. It also gave a residual activity [10, 46] of 81.8%, a residual activity [11, 46] of 54.8% and a residual activity [12, 46] of 89.8%. It also gave a residual activity [13, 46] of 100%, a residual activity [14, 46] of 100% and an inhibition [15] of 89.4%. The residual activity [16, 46] was 100%, the residual activity [17, 46] was 41.6% and the residual activity [18, 46] was 100%. The residual activity [19, 46] was 91.8%, the residual activity [20, 46] was 74.6% and the residual activity [21, 46] was 3%. For the same compound, the residual activity [22, 46] was 78.3%, the EC50 [23] was 1.7 nM (active) and the IC50 [23] was 0.7 nM (active). The residual activity [24, 46] was 83.6%, the residual activity [25, 46] was 72.4% and the residual activity [26, 46] was 98.4%. The residual activity [27, 46] was 84.1%, the residual activity [28, 46] was 100% and the residual activity [29, 46] was 96.2%. The residual activity [30, 46] was 93.2%, the residual activity [31, 46] was 100% and the residual activity [32, 46] was 99.3%. For the same compound, the residual activity [33, 46] was 97.5%, the residual activity [34, 46] was 81.4% and the residual activity [35, 46] was 75.5%. For the same compound, the residual activity [36, 46] was 80.4%, the inhibition [37] was 25.6% and the residual activity [38, 46] was 67.4%. The inhibition [39] was 18.4%, the inhibition [40] was 10.5% and the residual activity [41, 46] was 92.6%. For the same compound, the residual activity [42, 46] was 66.1%, the residual activity [43, 46] was 85.1% and the residual activity [44, 46] was 100%. It also gave a residual activity [45, 46] of 100%.

Compound `Cc1cc(NC(=O)c2cccc(S(F)(F)(F)(F)F)c2)cc(-n2ccn3nc(-c4cccnc4)cc23)c1` [BAY-309] has a residual activity [1, 47] of 93.1%, a residual activity [2, 47] of 100% and a residual activity [3, 47] of 84.8%. It also gave a residual activity [4, 47] of 100%, a residual activity [5, 47] of 100% and a residual activity [6, 47] of 86.8%. The residual activity [7, 47] was 100%, the residual activity [8, 47] was 66.2% and the residual activity [9, 47] was 68.1%. For the same compound, the residual activity [10, 47] was 100%, the residual activity [11, 47] was 40% and the residual activity [12, 47] was 100%. For the same compound, the residual activity [13, 47] was 100%, the residual activity [14, 47] was 95.3% and the inhibition [15] was 64.8%. For the same compound, the residual activity [16, 47] was 100%, the residual activity [17, 47] was 96.6% and the residual activity [18, 47] was 100%. The residual activity [19, 47] was 35.9%, the residual activity [20, 47] was 73.6% and the residual activity [21, 47] was 100%. The residual activity [22, 47] was 100%, the EC50 [23] was 3300 nM (not active) and the IC50 [23] was 1100 nM (not active). It also gave a residual activity [24, 47] of 100%, a residual activity [25, 47] of 88.4% and a residual activity [26, 47] of 80.6%. For the same compound, the residual activity [27, 47] was 100%, the residual activity [28, 47] was 100% and the residual activity [29, 47] was 100%. It also gave a residual activity [30, 47] of 100%, a residual activity [31, 47] of 96.4% and a residual activity [32, 47] of 83.8%. For the same compound, the residual activity [33, 47] was 100%, the residual activity [34, 47] was 100% and the residual activity [35, 47] was 100%. The residual activity [36, 47] was 100%, the inhibition [37] was -7.8% and the residual activity [38, 47] was 100%. For the same compound, the inhibition [39] was -8.73%, the inhibition [40] was 16.3% and the residual activity [41, 47] was 100%. It also gave a residual activity [42, 47] of 76.9%, a residual activity [43, 47] of 100% and a residual activity [44, 47] of 83.8%. For the same compound, the residual activity [45, 47] was 100%.
